Data taken from US6608004B2, “Substituted 2-aryl-1,2,4-triazine-3,5-di(thi)ones” (priority 1999, dated 2003).
Where two headings read alike, the source gives them in different places.

Tests used:
[1] = logP determination by HPLC, reversed-phase column (C 18), EEC Directive 79/831 Annex V.A8
Source text: (a) Mobile phases for the determination in the acidic range: 0.1% aqueous phosphoric acid, acetonitrile; linear gradient from 10% acetonitrile to 90% acetonitrile—the corresponding measurement results are labelled in Table 1 with ^a).
(b) Mobile phases for the determination in the neutral range: 0.01 molar aqueous phosphate buffer solution, acetonitrile; linear gradient from 10% acetonitrile to 90% acetonitrile—the corresponding measurement results are labelled in Table 1 with ^b).

weeds [2] = experiment: Pre-Emergence Test (Example A), activity against weeds; format: in vivo; conditions: soil sprayed about 24 hours after sowing, rated after three weeks
Source text: (§1) Solvent: 5 parts by weight of acetone
(§2) Emulsifier: 1 part by weight of alkylaryl polyglycol ether
(§3) Seeds of the test plants are sown in normal soil.
0%=no effect (like untreated control)

[3] = test system: crop plants, such as, for example, barley, wheat, rapeseed, soya and sugar beet; experiment: Pre-Emergence Test (Example A), tolerance by crop plants; format: in vivo
Source text: as §1, §2, §3

weeds [4] = experiment: Post-Emergence Test (Example B), activity against weeds; format: in vivo; conditions: test plants of a height of 5-15 cm sprayed, rated after three weeks
Source text: as §1, §2
(§4) After three weeks, the degree of damage to the plants is rated in % damage in comparison to the development of the untreated control.

[5] = test system: crop plants, such as, for example, barley and wheat; experiment: Post-Emergence Test (Example B), tolerance by crop plants; conditions: in vivo
Source text: as §1, §2, §4

[6] = a) acidic range: 0.1% aqueous phosphoric acid, acetonitrile gradient, HPLC C 18, 43° C.

Structure (SMILES) | logP a) [1] | activity against weeds (degree of damage) (weeds [2]) | tolerance by crop plants ([3]; in vivo) | activity against weeds (degree of damage) (weeds [4]) | tolerance by crop plants [5] | logP a) [1, 6] | tolerance by crop plants ([3]; pre-emergence, barley, wheat, rapeseed, soya and sugar beet, rated after three weeks)
CCCCC(CC)C(=O)N(c1cc(-n2ncc(=O)n(C)c2=O)c(F)cc1C#N)S(=O)(=O)CC (racemic) [Example 7] | m.p.: 140 °C logP = 3.53^a) | very strong activity | essentially being tolerated well | very strong activity | essentially being tolerated well | – | –
CCC(Oc1ccccc1)C(=O)N(c1cc(-n2ncc(=O)n(C)c2=O)c(F)cc1C#N)S(=O)(=O)CC (racemic) [Example 33] | m.p.: 128 °C logP = 3.12^a) | very strong activity | essentially being tolerated well | very strong activity | essentially being tolerated well | – | –
CCS(=O)(=O)N(C(=O)C(C)c1c(Cl)cccc1Cl)c1cc(-n2ncc(=O)n(C)c2=O)c(F)cc1C#N (racemic) [Example 34] | – | – | – | – | – | m.p.: 159 °C logP = 3.07^a) | –
CCS(=O)(=O)N(C(=O)C1CCc2ccccc2O1)c1cc(-n2ncc(=O)n(C)c2=O)c(F)cc1C#N (racemic) [Example 38] | m.p.: 115 °C logP = 2.93^a) | – | – | – | – | – | –
CCS(=O)(=O)N(C(=O)C(C)Oc1ccccc1)c1cc(-n2ncc(=O)n(C)c2=O)c(F)cc1C#N (racemic) [Example 39] | m.p.: 132 °C logP = 2.85^a) | very strong activity | essentially being tolerated well | very strong activity | essentially being tolerated well | – | –
CCS(=O)(=O)N(C(=O)C(C)Cl)c1cc(-n2ncc(=O)n(C)c2=O)c(F)cc1C#N (racemic) [Example 61] | logP = 2.38^a) | very strong activity | essentially being tolerated well | very strong activity | essentially being tolerated well | – | –
CCS(=O)(=O)N(C(=O)CCl)c1cc(-n2ncc(=O)n(C)c2=O)c(F)cc1C#N [Example 4] | logP = 2.09^a) | very strong activity | essentially being tolerated well | very strong activity | essentially being tolerated well | – | –
CCS(=O)(=O)N(C(=O)c1ccccc1F)c1cc(-n2ncc(=O)n(C)c2=O)c(F)cc1C#N [Example 5] | m.p.: 176 °C logP = 2.52^a) | very strong activity | essentially being tolerated well | very strong activity | essentially being tolerated well | – | –
CCS(=O)(=O)N(C(=O)COc1ccc(Cl)cc1)c1cc(-n2ncc(=O)n(C)c2=O)c(F)cc1C#N [Example 6] | m.p.: 65 °C logP = 3.07^a) | very strong activity | essentially being tolerated well | very strong activity | essentially being tolerated well | – | –
CCS(=O)(=O)N(C(=O)C(C)(C)C)c1cc(-n2ncc(=O)n(C)c2=O)c(F)cc1C#N [Example 10] | logP = 2.71^a) | very strong activity | essentially being tolerated well | very strong activity | essentially being tolerated well | – | –
CCS(=O)(=O)N(C(=O)c1ccc(OC)cc1)c1cc(-n2ncc(=O)n(C)c2=O)c(F)cc1C#N [Example 11] | m.p.: 94 °C logP = 2.77^a) | very strong activity | – | – | – | – | essentially being tolerated well
CCS(=O)(=O)N(C(=O)C(C)C)c1cc(-n2ncc(=O)n(C)c2=O)c(F)cc1C#N [Example 13] | logP = 2.50^a) | very strong activity | essentially being tolerated well | very strong activity | essentially being tolerated well | – | –
CCS(=O)(=O)N(C(=O)c1ccco1)c1cc(-n2ncc(=O)n(C)c2=O)c(F)cc1C#N [Example 14] | m.p.: 90 °C logP = 2.31^a) | very strong activity | essentially being tolerated well | very strong activity | essentially being tolerated well | – | –
C=CC(=O)N(c1cc(-n2ncc(=O)n(CCF)c2=O)c(F)cc1C#N)S(C)(=O)=O [Example 62] | – | – | – | – | – | m.p.: 142 °C logP = 1.93^a) | –
C/C=C/C(=O)N(c1cc(-n2ncc(=O)n(CCF)c2=O)c(F)cc1C#N)S(C)(=O)=O [Example 63] | – | – | – | – | – | m.p.: 85 °C logP = 2.12^a) | –
C=CC(=O)N(c1cc(-n2ncc(=O)n(CCF)c2=O)c(F)cc1C#N)S(=O)(=O)CCC [Example 64] | – | – | – | – | – | m.p.: 142 °C logP = 2.46^a) | –
C=CC(=O)N(c1cc(-n2ncc(=O)n(CCF)c2=O)c(F)cc1C#N)S(=O)(=O)CC [Example 65] | – | – | – | – | – | m.p.: 83 °C logP = 2.14^a) | –
CCS(=O)(=O)N(C(=O)c1cn(C)nc1C(F)(F)F)c1cc(-n2ncc(=O)n(C)c2=O)c(F)cc1C#N [Example 67] | m.p.: 199 °C logP = 2.54^a) | – | – | – | – | – | –
CCS(=O)(=O)N(C(=O)c1snnc1C)c1cc(-n2ncc(=O)n(C)c2=O)c(F)cc1C#N [Example 68] | m.p.: 189 °C logP = 1.73^a) | – | – | – | – | – | –
CCS(=O)(=O)N(C(=O)N1CCCC1)c1cc(-n2ncc(=O)n(C)c2=O)c(F)cc1C#N [Example 69] | m.p.: 192 °C logP = 2.05^a) | – | – | – | – | – | –
CCS(=O)(=O)N(C(=O)N(C(C)C)C(C)C)c1cc(-n2ncc(=O)n(C)c2=O)c(F)cc1C#N [Example 71] | m.p.: 188 °C logP = 2.92^a) | – | – | – | – | – | –
CCS(=O)(=O)N(C(=O)Oc1ccc(F)cc1)c1cc(-n2ncc(=O)n(C)c2=O)c(F)cc1C#N [Example 74] | m.p.: 202 °C logP = 2.85^a) | – | – | – | – | – | –
CCS(=O)(=O)N(C(=O)CCCc1ccc(OC)cc1)c1cc(-n2ncc(=O)n(C)c2=O)c(F)cc1C#N [Example 76] | logP = 3.03^a) | – | – | – | – | – | –
CCS(=O)(=O)N(C(=O)/C=C/c1ccc2c(c1)OCO2)c1cc(-n2ncc(=O)n(C)c2=O)c(F)cc1C#N [Example 77] | – | – | – | – | – | m.p.: 141 °C logP = 2.72^a) | –
CCS(=O)(=O)N(C(=O)CC(c1ccccc1)c1ccccc1)c1cc(-n2ncc(=O)n(C)c2=O)c(F)cc1C#N [Example 78] | m.p.: 183 °C logP = 3.48^a) | – | – | – | – | – | –
CCS(=O)(=O)N(C(=O)Cc1ccccc1OC)c1cc(-n2ncc(=O)n(C)c2=O)c(F)cc1C#N [Example 80] | m.p.: 140 °C logP = 2.70^a) | – | – | – | – | – | –
CCS(=O)(=O)N(C(=O)Cc1cc(OC)ccc1OC)c1cc(-n2ncc(=O)n(C)c2=O)c(F)cc1C#N [Example 81] | m.p.: 192 °C logP = 2.66^a) | – | – | – | – | – | –
CCS(=O)(=O)N(C(=O)Cc1cccc(OC)c1)c1cc(-n2ncc(=O)n(C)c2=O)c(F)cc1C#N [Example 82] | m.p.: 158 °C logP = 2.63^a) | – | – | – | – | – | –
